Reference: US9603876B2, “Compositions and methods for restoring gastrointestinal microbiota following antibiotic treatment” (New York University, priority 2008, dated 2017)

Legend:
Format in all cases: in vivo, C57/B6 mice
[1] = test system: Bacteroidetes and Firmicutes in the cecal microbiota; assay: Phylum-level analysis of cecal bacterial populations by 454 sequencing of 16S rRNA V3 region; conditions: cecal contents, Mann-Whitney U-test
Experimental: Approximately 10 mg of fecal or cecal samples were suspended in a solution containing 500 μl of extraction buffer (200 mM Tris (pH 8.0), 200 mM NaCl, 20 mM EDTA), 210 μl of 20% SDS, 500 μl of a mixture of phenol:chloroform (pH 7.9, 24:24), and 500 μl of a slurry of 0.1 mm-diameter zirconia beads. Cells were lysed by mechanical disruption with a bead beater set on high for 2 min at room temperature, followed by extraction with phenol:chloroform (pH 7.9, 24:24), and precipitation with isopropanol. […]
Phylum-level analysis of bacterial populations in […] mice. […] Mouse cecal contents were analyzed by 454 pryosequencing (Roche). […] For this experiment, the sequencing run produced 555,233 barcoded sequences with an average read length of 188±2.5 base pairs, an average read/barcode of 5784±676, and a read quality of 35. […] Order-level sequence data were summated to the phylum level and analyzed. […]
In another analysis, the proportion of all of the Eubacteria detected that were represented by the Firmicutes was examined. As shown in FIGS. 13A-B, % body fat measured by densitometry of the control and STAT mice (A) correlates with the ratio of Firmicute/Eubacteria as determined at the family level by 454 sequencing (B). […]

[2] = test system: bacterial populations of cecal contents; assay: RAPD-PCR characterization of the microbial population in cecal contents; conditions: DNA from cecal contents; primers 1254, OPL-02, OPL-12
Experimental: (§1) Approximately 10 mg of fecal or cecal samples were suspended in a solution containing 500 μl of extraction buffer (200 mM Tris (pH 8.0), 200 mM NaCl, 20 mM EDTA), 210 μl of 20% SDS, 500 μl of a mixture of phenol:chloroform (pH 7.9, 24:24), and 500 μl of a slurry of 0.1 mm-diameter zirconia beads. Cells were lysed by mechanical disruption with a bead beater set on high for 2 min at room temperature, followed by extraction with phenol:chloroform (pH 7.9, 24:24), and precipitation with isopropanol. After the sample was suspended in 100 μl of TE buffer, the extraction products were further purified using a modified protocol from the ExtractMaster Fecal DNA extraction kit (Epicentre Technologies, Madison Wis.). Residual protein was precipitated using the Protein Precipitation reagent and inhibitors were removed through an Inhibitor Removal Resin spin column. The final product was suspended in 100 μl of TE buffer.
Characterization of the microbial population in the fecal samples was performed using random amplified polymorphic DNA PCR(RAPD-PCR). […] The gels were stained with ethidium bromide and imaging was analyzed using imaged. […]
The positive control (+) was DNA from P. acnes strain VPI 0389. […] The letters A, B, C over columns C10, P1, and P2, respectively, were analyzed be measuring luminescence (see FIGS. 9A-B). […]

[3] = Body composition (fat mass, lean mass, % body fat, bone mineral density) by DEXA in sub-therapeutic antibiotic treated (STAT) mice; conditions: at 6 to 9 weeks, sub-therapeutic dose in drinking water, vs control mice
Excerpt: C57/B6 mice were obtained at weaning (21 days) from Jackson Laboratories (Bar Harbor, Me.). They were weighed and then distributed in cages so that the mean weights of the mice in each cage were equal. The mice were then allowed to adjust to the NYU animal facility. At day 23 of life, the antibiotic-exposure experiment began. Animals were allowed ad libitum access to food and water and maintained with a 12-hour light/dark cycle. The mice were fed standard laboratory chow (Purina Mills International Diet # 5001). These conditions were continued until the time of sacrifice.
Mice were given standard water (pH 6.8) or water containing the following antimicrobial agents (at sub-therapeutic levels) in groups of 5-10 mice per experimental condition.
Body composition (fat mass, lean mass, percent [%] body fat) was determined using dual energy X-ray absorptiometry (DEXA) with a Lunar PIXImus II mouse densitometer (PIXImus, Fitchburg, Wis.) at the time of sacrifice. Each mouse was scanned individually. Data collected from the scan included fat and lean body mass, percent body fat, and bone mineral density.
Since maximal growth of mice in these experiments was during the first 2 weeks after weaning, a group of mice were sacrificed at two weeks, and bone mineral density (BMD) and fat phenotypes assessed. […]

[4] = test system: total fecal eubacterial and fungal levels; assay: Total microbial counts in fecal pellets by qPCR (16S rRNA, fungal ITS2)
Experimental: At approximately weekly intervals, a fresh fecal pellet was collected from each individual mouse and frozen at −80° C. until DNA could be extracted. At the time of sacrifice, a fecal pellet was collected, as well as the cecal contents.
as §1, with “Residual protein was precipitated using the Protein Precipitation reagent and inhibitors were removed through an Inhibitor Removal Resin spin column. The final product was suspended in 100 μl of TE buffer.” left out
Analysis of total microbial counts in STAT Mice. […] This possibility was addressed by examining total fecal eubacterial levels in penicillin-treated and control mice by a standardized quantitative PCR (qPCR) using primers […] […] Total fungal levels were determined by qPCR using primers directed to the conserved ITS2 region in the fungal rrn operon ITS1F […] […]

[5] = test system: Butyryl CoA transferase (BCoAT)-encoding genes; assay: Butyryl CoA transferase (BCoAT) gene qPCR on cecal specimens; conditions: cecal samples
Experimental: as §1
To test the effect of colonic microbiota on butyrate metabolism, a PCR assay was performed to detect genes encoding an enzyme, Butyryl CoA transferase (BCoAT), regardless of the taxonomic origin of the gene. The following primers were used: BCoATscrF […] (SEQ ID NO: 11) and BCoATscrR […] (SEQ ID NO: 12). BCoAT plays a central role in butyrate metabolism, which is an important short-chain fatty acid (SCFA) in colonic metabolism and provides energy to colonocytes (FIG. 14). […]

Compound | Firmicutes and B/F ratio compared to the controls [1] | RAPD-PCR products compared to control mice [2] | more fat mass than controls (normalized mean fat mass) [3] | number of copies of bacterial or fungal rrn elements vs control [4] | BCoAT densities compared to controls [5]
CN[C@H](CC(C)C)C(=O)N[C@H]1C(=O)N[C@@H](CC(N)=O)C(=O)N[C@H]2C(=O)N[C@H]3C(=O)N[C@H](C(=O)N[C@H](C(=O)O)c4cc(O)cc(O)c4-c4cc3ccc4O)[C@H](O)c3ccc(c(Cl)c3)Oc3cc2cc(c3O[C@@H]2O[C@H](CO)[C@@H](O)[C@H](O)[C@H]2O[C@H]2C[C@](C)(N)[C@H](O)[C@H](C)O2)Oc2ccc(cc2Cl)[C@H]1O [vancomycin, Vancomycin] | statistically significant | varying sets of bands | – | – | –
Penicillin | – | clear differences | 22.9±8.1% | no significant difference | increase
CN(C)[C@@H]1C(O)=C(C(N)=O)C(=O)[C@@]2(O)C(O)=C3C(=O)c4c(O)ccc(Cl)c4[C@@](C)(O)[C@H]3C[C@@H]12 [chlortetracycline, Chlortetracycline] | – | – | 8.1±3.4% | – | –
